# Laboratory results as given in US9884813B1, “Pharmaceutically acceptable salts of B-guanidinopropionic acid with improved properties and uses thereof” (Rgenix, Inc., priority 2017, dated 2018).
# “Also recorded” adds a separate entry of the source.
# What was measured:
# Assay type in all cases: physicochemical
# [1] = Temperature cycling experiments of 2:1 β-GPA fumarate
# Method: The following (Table 26) experiments were performed to isolate possible polymorphic forms of 2:1 β-GPA fumarate.
# [2] = Gravimetric solubility of 2:1 β-GPA fumarate in solvents
# Method: Solubility of β-GPA fumarate was measured gravimetrically in fifteen different solvents and solvent mixtures at 15 and 45° C. About 100 mg of the compound was dispensed in ten volumes (1 mL) of the solvent/solvent mixture and slurried for 48 hours. Table 24 represents the solubility of β-GPA fumarate in different solvents. After 48 hours the vials were centrifuged. The supernatant was collected and left for slow evaporation under vacuum at 45° C. and solubility was determined. The solids obtained after centrifugation and evaporation were analyzed by XRPD.
# [3] = Carr's index and Hausner ratio (predicted flowability); settings: Table 18, scale of Table 17
# [4] = Solid form stability of 2:1 β-GPA fumarate at various temperature/humidity conditions (XRPD); settings: for XRPD: a week
# Method: The solid form stability of β-GPA fumarate was studied at various temperature/humidity conditions as listed in Table 23 for a week using saturated salt solution chambers. The samples were analyzed by XRPD after a week.
# [5] = Carr's index and Hausner ratio (predicted flowability); settings: for Carr's index / Hausner ratio: calculated from bulk and tapped volumes; for Flow character: predicted, scale of Table 6 (Carr's index)
# Excerpt: The flow properties of β-GPA are sub-optimal. The bulk density is 0.389 g/cc and the tapped density is 0.627 g/cc. These measurements can be used to calculate the Carr's index and Hausner ratio for a substance. The Carr's index and Hausner ratio are indicators of flowability of a powder. As known in the art, e.g., as described in Carr R. L. Chem. Eng. 1965, 72, 163-168, the relationship to flowability of a powder to the Carr's index and Hausner ratio is based on the scale shown in Table 6 below.
# Carr's index or Carr's compressibility index (C) is an indication of the compressibility of a powder. It can be calculated using the equation below: Carr's index (C)=100(Vi−Vf)/Vi (3) A Carr's index greater than 25 is considered to be an indication of poor flowability while a value below 15 is an indication of good flowability.
# The Hausner ratio is a number that is correlated to the flowability of a powder or granular material. It is calculated by using the equation below: Hausner ratio=Vi/Vf (4)
# [6] = Flowability measurement using Hanson Flodex unit
# Excerpt: Method: A cylindrical vessel is secured to the stand and above that a funnel is also secured such that the bottom of the funnel is close to the vessel. A powder load of ≈50-60 g is then poured through the funnel into the middle of the cylinder. The lever device is pulled to open the hole in the disk quickly and without vibration. If a powder slowly flows through the small-diameter holes, leaving a cavity shaped like an upside-down, truncated cone, the test is considered positive. If a powder flocculates in bulk and falls abruptly, forming a cylindrical cavity, the test is considered negative. […] If the experiment is negative, the powder is tested again with a disk having a larger hole.
# [7] = Dynamic vapor sorption (DVS) with XRPD of the post-DVS sample; settings: for solid form by XRPD after the DVS experiment: post DVS sample
# Method: Samples were analyzed using an Aquadyne DVS-2 gravimetric water sorption analyzer. The relative humidity was adjusted between 2-95% and the weight of the sample was continuously monitored and recorded.
# […]: β-GPA maleate (1:1) Form II, β-GPA fumarate (1:1), β-GPA maleate (2:1), β-GPA succinate (2:1) and β-GPA oxalate (1:1) were analyzed by DVS experiment followed by XRPD analysis of the sample at the end of the experiment.
# Sample 2162-64-1 was analyzed by DVS in triplicate and the post DVS samples were characterized by XRPD to identify the form at the end of the experiment.
# [8] = Bulk and tapped density
# Method: The bulk density of β-GPA oxalate (Pattern 18 B), succinate (Pattern 15A), and fumarate (Pattern 7A) were determined by pouring in a known amount of salt (g) into a measuring cylinder. The volume (Vi) occupied by the salt was recorded and the bulk density (ρB) was determined using equation 1. ρB=g/Vi (1)
# The tapped densities of the salts were determined using a Tap density analyzer. A known amount of salt was poured (g) into a measuring cylinder and the initial volume was recorded and tapped using a Tap density analyzer. The final volume (Vf) after tapping was recorded and the tapped density (ρT) was calculated by using equation 2. ρT=g/Vf (2)
# [9] = Solid form stability of salts in different solvents (slurry, XRPD); settings: 48 hours, room temperature
# Method: Three salts were studied for solid form stability in water (disproportionation test), methanol, acetonitrile, and acetone:water (9:1) for 48 hours at room temperature.
# [10] = Solid form stability under stressed conditions (wet, dry, high humidity) by XRPD
# Method: The solid form stability of each salt was studied by XRPD under stressed conditions: wet, dry (45° C. under vacuum) and high humidity (RH >95%).
# [11] = Solid form stability at 40° C. and 75% humidity; settings: 40° C. and 75% RH for seven days
# Method: Solid form stability studies of β-GPA fumarate, succinate, and oxalate were carried out at 40° C. and 75% RH for seven days. Around 30 mg of the salts were placed in 4 mL vials which were placed in a saturated solution of sodium chloride (2 mL) with lids closed at 40° C. […]
structure (smiles),measurement,setting,value
N=C(N)NCCC(=O)O.N=C(N)NCCC(=O)O.O=C(O)/C=C/C(=O)O [β-GPA fumarate (2:1)],Result (XRPD),"[1]; 50° C. 2 hours, RT, 50° C. 48 hours",Pattern 7A
same,Result (XRPD),"[1]; dry ice-acetone 30 minutes, RT",Pattern 7A
same,Result (XRPD),"[1]; heated to 150° C. and brought to room temperature, cycle repeated three times",Pattern 7A
same,Result (XRPD),"[1]; vacuum oven 130° C. 2 hours, RT, 130° C. 48 hours",Pattern 7A
same,Solubility,"[2]; Acetone, 15° C.",<1 mg/mL
same,Solubility,"[2]; Acetone, 45° C.",<1 mg/mL
same,Solubility,"[2]; Acetone:H2O (9:1), 15° C.",2.5 mg/mL
same,Solubility,"[2]; Acetone:H2O (9:1), 45° C.",4.1 mg/mL
same,Solubility,"[2]; DCM, 15° C.",<1 mg/mL
same,Solubility,"[2]; DCM, 45° C.",0.5 mg/mL
same,Solubility,"[2]; EtOAc, 15° C.",<1 mg/mL
same,Solubility,"[2]; EtOAc, 45° C.",<1 mg/mL
same,Solubility,"[2]; EtOH, 15° C.",<1 mg/mL
same,Solubility,"[2]; EtOH, 45° C.",<1 mg/mL
same,Solubility,"[2]; H2O:MeOH:IPA (3:5.5:5), 15° C.",<1 mg/mL
same,Solubility,"[2]; H2O:MeOH:IPA (3:5.5:5), 45° C.",<1 mg/mL
same,Solubility,"[2]; Heptane, 15° C.",<1 mg/mL
same,Solubility,"[2]; Heptane, 45° C.",<1 mg/mL
same,Solubility,"[2]; IPA, 15° C.",<1 mg/mL
same,Solubility,"[2]; IPA, 45° C.",<1 mg/mL
same,Solubility,"[2]; IPA:H2O (9:1), 15° C.",1.64 mg/mL
same,Solubility,"[2]; IPA:H2O (9:1), 45° C.",2.1 mg/mL
same,Solubility,"[2]; MeCN, 15° C.",<1 mg/mL
same,Solubility,"[2]; MeCN, 45° C.",<1 mg/mL
same,Solubility,"[2]; MeOH, 15° C.",~1 mg/mL
same,Solubility,"[2]; MeOH, 45° C.",2.73 mg/mL
same,Solubility,"[2]; MeOH:H2O (9:1), 15° C.",9.2 mg/mL
same,Solubility,"[2]; MeOH:H2O (9:1), 45° C.",11.2 mg/mL
same,Solubility,"[2]; TBME, 15° C.",3.0 mg/mL
same,Solubility,"[2]; TBME, 45° C.",28.9 mg/mL
same,Solubility,"[2]; THF:H2O (9:1), 15° C.",2.08 mg/mL
same,Solubility,"[2]; THF:H2O (9:1), 45° C.",4.12 mg/mL
same,Solubility,"[2]; Water, 15° C.",30 mg/mL
same,Solubility,"[2]; Water, 45° C.",>100 mg/mL
same,XRPD analysis of the precipitates after 48 hours slurries,[2]; fifteen solvents and solvent mixtures at 15 and 45° C.,no form transformations
same,Flow character,[3],Excellent (1-10)
same,XRPD,"[4]; 20° C., 43% relative humidity",Pattern 7A
same,XRPD,"[4]; 20° C., 59% relative humidity",Pattern 7A
same,XRPD,"[4]; 20° C., 73% relative humidity",Pattern 7A
same,XRPD,"[4]; 20° C., >95% relative humidity",Pattern 7A
same,XRPD,"[4]; 40° C., 82% relative humidity",Pattern 7A
same,XRPD,"[4]; 60° C., 50% relative humidity",Pattern 7A
same,XRPD,"[4]; 60° C., 80% relative humidity",Pattern 7A
same,solid form stability,[4]; RH >95% at 20° C.,stable
same,XRPD pattern,"[4]; RH >95% at room temperature, 48 hours",retain its original XRPD pattern (Pattern 7A)
same,Carr's index,[5],5.9
same,Hausner ratio,[5],1.063
same,Flow character,[5],Excellent (1-10)
same,Did solid pass?,[6]; Disc pore size 4 mm,No
same,Did solid pass?,[6]; Disc pore size 5 mm,Yes
same,Did solid pass?,[6]; Disc pore size 6 mm,Yes
same,Did solid pass?,[6]; Disc pore size 12 mm,Yes
same,moisture uptake during the DVS experiment,[7],less than 0.1%
same,solid form by XRPD after the DVS experiment,[7]; listed as 2:1 fumarate salt,did not exhibit any dissociation of the salt
same,solid form by XRPD after the DVS experiment,[7]; listed as 2162-64-1,identical to β-GPA fumarate (Pattern 7A)
same,Bulk density,[8],0.576 g/cc
same,Tapped density,[8],0.613 g/cc
N=C(N)NCCC(=O)O.O=C(O)C(=O)O [β-GPA oxalate (1:1)],XRPD pattern after slurry,[9]; acetone:water (9:1),retain their XRPD pattern
same,XRPD pattern after slurry,[9]; acetonitrile,retain their XRPD pattern
same,XRPD pattern after slurry,[9]; methanol,retain their XRPD pattern
same,XRPD pattern after slurry,[9]; water (disproportionation test),retained their XRPD patterns
same,XRPD pattern after slurry,"[9]; water (disproportionation test), listed as 1:1 β-GPA oxalate",retained their XRPD pattern
same,Flow character,[3],Fair (16-20)
same,Carr's index,[5],18.7
same,Hausner ratio,[5],1.23
same,Flow character,[5],Fair (16-20)
same,Did solid pass?,[6]; Disc pore size 12 mm,No
same,Did solid pass?,[6]; Disc pore size 18 mm,No
same,Did solid pass?,[6]; Disc pore size 24 mm,No
same,Did solid pass?,[6]; Disc pore size 26 mm,Yes
same,Did solid pass?,[6]; Disc pore size 28 mm,Yes
same,Did solid pass?,[6]; Disc pore size 30 mm,Yes
same,flow character from the experimental data,[6]; summary of density and Flodex measurements,fair
same,Dry_XRPD pattern,[10]; dry (45° C. under vacuum),Pattern 18A
same,stability in dry conditions,[10]; dry conditions,stable
same,Humid_XRPD pattern,[10]; high humidity (RH >95%),Pattern 18A
same,stability under high humidity conditions,[10]; high humidity conditions,stable
same,Wet_XRPD pattern,[10]; wet,Pattern 18A
same,solid form by XRPD after the DVS experiment,[7],retained their XRPD
same,solid form by XRPD after the DVS experiment,[7]; listed as 1:1 oxalate salt,no form change
same,solid form by XRPD after the DVS experiment,[7]; listed as 1:1 β-GPA oxalate,no form change
same,Bulk density,[8],0.505 g/cc
same,Tapped density,[8],0.623 g/cc
same,solid form stability (XRPD),[11],retained their original XRPD pattern; also recorded: stable
same,solid form stability (XRPD),[11]; listed as 1:1 oxalate salt,stable
